Measured values as given in patent US8536202B2, “Triazole-substituted anthranilamides as pesticides” (Bayer Cropscience AG, priority 2010, dated 2013).
Like-named read-outs stand apart in the source and are kept apart here.

What was measured:
[1] = log P determination by HPLC on reversed-phase columns (EEC Directive 79/831 Annex V.A8); assay type: physicochemical; conditions: pH 2.7
Summary of the method: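 Calibration used unbranched alkan-2-ones of 3 to 16 carbons with known log P, values interpolated linearly from retention times between neighbouring standards. Acidic-range LC-MS run at pH 2.7, eluents aqueous and acetonitrile formic acid 0.1%, linear gradient 10% to 95% acetonitrile.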

[2] = tested on: larvae of the mustard beetle (Phaedon cochleariae); experiment: Phaedon test (PHAECO spray treatment); assay type: in vivo; conditions: 168 h, read-out: activity in %
Summary of the method: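 Mortality of mustard beetle larvae, expressed as percent killed (100% all, 0% none), assessed 7 days after spraying. Spray liquor made from compound in acetone plus dimethylformamide with alkylaryl polyglycol ether, diluted in emulsifier-containing water to the desired concentration.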

[3] = tested on: caterpillars of the armyworm (Spodoptera frugiperda); experiment: Spodoptera frugiperda test (SPODFR spray treatment); assay type: in vivo; conditions: 168 h, read-out: activity in %
Summary of the method: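 Percent caterpillar mortality read 7 days after infestation (0% none killed, 100% all killed). Treatment was a spray of the acetone/DMF/emulsifier formulation, water-diluted to test concentration, onto Zea mays leaf discs, allowed to dry before larvae were added.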

[4] = tested on: green peach aphid (Myzus persicae); experiment: Myzus test (MYZUPE spray treatment), Use Example 4; assay type: in vivo; conditions: 144 h, read-out: activity in %
Summary of the method: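 Compound was formulated in acetone/dimethylformamide with alkylaryl polyglycol ether emulsifier and diluted in emulsifier-containing water. It was sprayed onto Chinese cabbage leaf discs infested with all stages of Myzus persicae. Mortality (%) was scored after 6 days, where 100% means all aphids killed.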

[5] = HPLC on reversed-phase columns (C 18), EEC Directive 79/831 Annex V.A8, read-out: logP

SMILES	chromatographic logP [1]	pest or weed control at 100 g/ha ([2]; 100 g/ha, after 7 days) [%]	pest or weed control at 100 g/ha ([3]; 100 g/ha, after 7 days) [%]	pest or weed control at 100 g/ha ([4]; 100 g/ha, after 6 days) [%]	chromatographic logP [1, 5]	pest or weed control at 100 g/ha [2] [%]	pest or weed control at 100 g/ha [3] [%]	pest or weed control at 100 g/ha [4] [%]
CCNC(=O)c1cc(Cl)cc(C)c1NC(=O)c1cc(Cn2cc(C(F)(F)C(F)(F)F)nn2)nn1-c1ncccc1Cl [Example 302]	3.26	100	100	80				
Cc1cc(Cl)cc(C(=O)NC(C)C)c1NC(=O)c1cc(Cn2cc(C(F)(F)C(F)(F)F)nn2)nn1-c1ncccc1Cl [Example 303]	3.5	100	100	100				
Cc1cc(Cl)cc(C(=O)NC(C)(C)C)c1NC(=O)c1cc(Cn2cc(C(F)(F)C(F)(F)F)nn2)nn1-c1ncccc1Cl [Example 304]	3.85	100	100	100				
Cc1cc(Cl)cc(C(=O)NCC2CC2)c1NC(=O)c1cc(Cn2cc(C(F)(F)C(F)(F)F)nn2)nn1-c1ncccc1Cl [Example 305]	3.55	100	100	100				
Cc1cc(Cl)cc(C(N)=O)c1NC(=O)c1cc(Cn2cc(C(F)(F)C(F)(F)F)nn2)nn1-c1ncccc1Cl [Example 306]	2.78	100	100	100				
CSC[C@H](C)NC(=O)c1cc(Cl)cc(C)c1NC(=O)c1cc(Cn2cc(C(F)(F)C(F)(F)F)nn2)nn1-c1ncccc1Cl [Example 307]	3.66	100	100	100				
CNC(=O)c1cc(I)cc(C)c1NC(=O)c1cc(Cn2cc(C(F)(F)C(F)(F)F)nn2)nn1-c1ncccc1Cl [Example 308]	3.23	100	100	100				
Cc1cc(I)cc(C(=O)NC(C)C2CC2)c1NC(=O)c1cc(Cn2cc(C(F)(F)C(F)(F)F)nn2)nn1-c1ncccc1Cl (centres unmarked) [Example 309]	4.03	100	100	80				
Cc1cc(I)cc(C(=O)NC(C)C)c1NC(=O)c1cc(Cn2cc(C(F)(F)C(F)(F)F)nn2)nn1-c1ncccc1Cl [Example 312]	3.73	100	100	80				
Cc1cc(I)cc(C(=O)NC(C)(C)C)c1NC(=O)c1cc(Cn2cc(C(F)(F)C(F)(F)F)nn2)nn1-c1ncccc1Cl [Example 313]	4.09	100	100	100				
Cc1cc(I)cc(C(=O)NCC2CC2)c1NC(=O)c1cc(Cn2cc(C(F)(F)C(F)(F)F)nn2)nn1-c1ncccc1Cl [Example 314]	3.8	100	100	80				
Cc1cc(I)cc(C(N)=O)c1NC(=O)c1cc(Cn2cc(C(F)(F)C(F)(F)F)nn2)nn1-c1ncccc1Cl [Example 315]	2.98	100	100	90				
CSC[C@H](C)NC(=O)c1cc(I)cc(C)c1NC(=O)c1cc(Cn2cc(C(F)(F)C(F)(F)F)nn2)nn1-c1ncccc1Cl [Example 316]	3.91	100	100	100				
CNC(=O)c1cc(C#N)cc(C)c1NC(=O)c1cc(Cn2cc(C(F)(F)C(F)(F)F)nn2)nn1-c1ncccc1Cl [Example 317]	2.68	100	100	100				
Cc1cc(C#N)cc(C(=O)NC2CC2)c1NC(=O)c1cc(Cn2cc(C(F)(F)C(F)(F)F)nn2)nn1-c1ncccc1Cl [Example 318]	2.89	100	100	100				
CCNC(=O)c1cc(C#N)cc(C)c1NC(=O)c1cc(Cn2cc(C(F)(F)C(F)(F)F)nn2)nn1-c1ncccc1Cl [Example 319]	2.89	100	100	100				

SMILES	chromatographic logP [1]	pest or weed control at 100 g/ha ([2]; 100 g/ha, after 7 days) [%]	pest or weed control at 100 g/ha ([3]; 100 g/ha, after 7 days) [%]	pest or weed control at 100 g/ha ([4]; 100 g/ha, after 6 days) [%]	chromatographic logP [1, 5]	pest or weed control at 100 g/ha [2] [%]	pest or weed control at 100 g/ha [3] [%]	pest or weed control at 100 g/ha [4] [%]
Cc1cc(C#N)cc(C(=O)NC(C)C)c1NC(=O)c1cc(Cn2cc(C(F)(F)C(F)(F)F)nn2)nn1-c1ncccc1Cl [Example 320]	3.11	100	100	100				
CSC[C@H](C)NC(=O)c1cc(Cl)cc(C)c1NC(=O)c1cc(Cn2cc(C(F)(F)C(F)(F)C(F)(F)F)nn2)nn1-c1ncccc1Cl [Example 324]					3.99	100	100	100
Cc1cc(Cl)cc(C(=O)NCC2CC2)c1NC(=O)c1cc(Cn2cc(C(F)(F)C(F)(F)C(F)(F)F)nn2)nn1-c1ncccc1Cl [Example 325]					3.9	100	100	100
Cc1cc(Cl)cc(C(=O)NC2CC2)c1NC(=O)c1cc(Cn2cc(C(F)(F)C(F)(F)C(F)(F)F)nn2)nn1-c1ncccc1Cl [Example 326]					3.57	100	100	100
Cc1cc(Cl)cc(C(=O)NC(C)C2CC2)c1NC(=O)c1cc(Cn2cc(C(F)(F)C(F)(F)C(F)(F)F)nn2)nn1-c1ncccc1Cl (centres unmarked) [Example 327]					4.15	100	100	100
CNC(=O)c1cc(Cl)cc(C)c1NC(=O)c1cc(Cn2cc(C(F)(F)C(F)(F)C(F)(F)F)nn2)nn1-c1ncccc1Cl [Example 328]					3.38	100	100	100
Cc1cc(C#N)cc(C(=O)NC(C)C)c1NC(=O)c1cc(Cn2cc(C(F)(F)C(F)(F)C(F)(F)F)nn2)nn1-c1ncccc1Cl [Example 329]					3.42	100	100	100
Cc1cc(C#N)cc(C(=O)NC(C)C2CC2)c1NC(=O)c1cc(Cn2cc(C(F)(F)C(F)(F)C(F)(F)F)nn2)nn1-c1ncccc1Cl (centres unmarked) [Example 331]					3.71	100	100	100
Cc1cc(I)cc(C(N)=O)c1NC(=O)c1cc(Cn2cc(C(F)(F)C(F)(F)C(F)(F)F)nn2)nn1-c1ncccc1Cl [Example 332]					3.35	100	100	100
CNC(=O)c1cc(I)cc(C)c1NC(=O)c1cc(Cn2cc(C(F)(F)C(F)(F)C(F)(F)F)nn2)nn1-c1ncccc1Cl [Example 337]					3.59	100	100	100
Cc1cc(Cl)cc(C(N)=O)c1NC(=O)c1cc(Cn2cc(C(F)(F)C(F)(F)C(F)(F)F)nn2)nn1-c1ncccc1Cl [Example 338]					3.13	100	100	100
Cc1cc(Cl)cc(C(=O)NC(C)(C)C)c1NC(=O)c1cc(Cn2cc(C(F)(F)C(F)(F)C(F)(F)F)nn2)nn1-c1ncccc1Cl [Example 339]					4.21	100	100	90
Cc1cc(Cl)cc(C(=O)NC(C)C)c1NC(=O)c1cc(Cn2cc(C(F)(F)C(F)(F)C(F)(F)F)nn2)nn1-c1ncccc1Cl [Example 340]					3.8	100	100	100
CCNC(=O)c1cc(Cl)cc(C)c1NC(=O)c1cc(Cn2cc(C(F)(F)C(F)(F)C(F)(F)F)nn2)nn1-c1ncccc1Cl [Example 341]					3.62	100	100	100
Cc1cc(C#N)cc(C(=O)NC2CC2)c1NC(=O)c1cc(Cn2cc(C(F)(F)C(F)(F)C(F)(F)F)nn2)nn1-c1ncccc1Cl [Example 342]					3.22	100	100	100
CNC(=O)c1cc(C#N)cc(C)c1NC(=O)c1cc(Cn2cc(C(F)(F)C(F)(F)C(F)(F)F)nn2)nn1-c1ncccc1Cl [Example 343]					3.04	100	100	100
